One experiment has as its system DoHH2 cells. As to the kind of experiment: Cell proliferation assay, DoHH2 cells (MTS, 120 h). Format: cell-based. The protocol:
MTS testing kit was purchased from Promega (Madison, Wis., USA). The RPMI-1640, Fetal bovine serum and Penicillin-Streptomycin were purchased from BI (Biological Industries, Beit Haemek, Israel). Dimethyl sulfoxide (DMSO) was purchased from Sigma (St. Louis, Mo., USA). DoHH2 (DSMZ catalog #: ACC47) cells were cultured in RPMI-1640 supplemented with Penicillin-Streptomycin and 10% FBS.
To investigate whether a compound is able to inhibit the activity of BCL-2 in cells, a mechanism-based assay using DoHH2 lines was developed. In this assay, the inhibition of BCL-2 was reflected by the inhibition of cell proliferation of DoHH2 cells. Cells were plated into 96-well plates at the optimized cell density of 5000 cells/well. Plates were incubated at 37° C., with 5% CO2 for 4h. Compounds were serially diluted and added to the plates with the final concentrations of 10000, 3333.3, 1111.1, 370.4, 123.5, 41.2, 13.7, 4.6 and 1.5 nM. Plates were incubated at 37° C., with 5% CO2 for 120 h. 20 μl MTS was added into each well and the plates were incubated at 37° C., with 5% CO2 for exactly 2 h. The absorbance was measured by a microplate reader at 490 nm. IC50 was calculated using GraphPad Prism 5.0 software.

The test system of another experiment is Toledo cells. The experiment is described as follows: Cell proliferation assay, Toledo cells (MTS, 72 h). It is filed as cell-based. The conditions noted are these: Toledo cells, MTS, read-out: Toledo IC50. A digest of the protocol: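 IC50 was derived from 490 nm absorbance after a 2 h MTS step. Before that, compounds at 1.5–10000 nM final (nine points) acted on Toledo cells for 72 h at 37 °C, 5% CO2. Cells were seeded at 30000/well in 10% FBS RPMI-1640 and rested 4 h before dosing.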

pIC50: −log10 of the molar value. Read-outs that look alike come from different tables or passages of the source.

Results on four compounds are retold here after US20230159527A1, “COMPOUNDS AS BCL-2 INHIBITORS” (Fochon Pharmaceuticals, Ltd., priority 2020, published 2023).

As a reminder, the pIC50 is the negative decadic logarithm of the IC50, by convention in mol/L. In the case of `CC(C)c1ccccc1[C@@H]1CCCN1C1CC2(CCN(c3ccc(C(=O)NS(=O)(=O)c4cc5c(c([N+](=O)[O-])c4)O[C@@H](CN4CCOCC4)CO5)c(Oc4cnc5[nH]ccc5c4)c3)CC2)C1` (single isomer, unassigned) [Example E-35, 2-((1H-pyrrolo [2,3-b]pyridin-5-yl)oxy)-4-(2-((R or S)-2-(2-isopropylphenyl)pyrrolidin-1-yl)-7-azaspiro[3.5]nonan-7-yl)-N-(((S)-2-(morpholinomethyl)-8-nitro-2,3-dihydrobenzo [b][1,4]dioxin-6-yl)sulfonyl) benzamide], the pIC50 in the experiment with DoHH2 cells (Homo sapiens, DOHH-2) is at least 9.00; in the experiment with Toledo cells (Homo sapiens) it was 8.15.
The matching figures for `CC(C)c1ccccc1C1CN(C)CCN1C1CC2(CCN(c3ccc(C(=O)NS(=O)(=O)c4cnc(NCC5CCC(C)(O)CC5)c([N+](=O)[O-])c4)c(Oc4cnc5[nH]ccc5c4)c3)CC2)C1` (single isomer, unassigned) [Example A-62, (R or S)-2-((1H-pyrrolo[2,3-b]pyridin-5-yl)oxy)-N-((6-(((4-hydroxy-4-methylcyclohexyl)methyl)amino)-5-nitropyridin-3-yl)sulfonyl)-4-(2-(2-(2-isopropylphenyl)-4-methyl-piperazin-1-yl)-7-azaspiro[3.5]nonan-7-yl)benzamide]: at least 9.00 and 9.00.
Turning to `CC(C)c1ccccc1[C@@H]1COCCN1C1CC2(CCN(c3ccc(C(=O)NS(=O)(=O)c4cnc(NC[C@H]5CC[C@](C)(O)CC5)c([N+](=O)[O-])c4)c(Oc4cnc5[nH]cc(F)c5c4)c3)CC2)C1` (single isomer, unassigned) [Example A-128, 2-((3-fluoro-1H-pyrrolo[2,3-b]pyridin-5-yl)oxy)-N-((6-((((1r,4r)-4-hydroxy-4-methylcyclohexyl)methyl)amino)-5-nitropyridin-3-yl)sulfonyl)-4-(2-((R or S)-3-(2-isopropylphenyl)morpholino)-7-azaspiro[3.5]nonan-7-yl) benzamide], the pIC50 with DoHH2 cells (Homo sapiens, DOHH-2) is at least 9.00; in the experiment on Toledo cells (Homo sapiens), 9.00.
As to `CC(C)c1ccccc1C1COCCN1C1CC2(CCN(c3ccc(C(=O)NS(=O)(=O)c4cnc(NCC5CCC(N=S(C)(C)=O)CC5)c([N+](=O)[O-])c4)c(Oc4cnc5[nH]ccc5c4)c3)CC2)C1` (single isomer, unassigned) [Example A-57, 2-((1H-pyrrolo[2,3-b]pyridin-5-yl)oxy)-N-((6-((((1r,4r)-4-((dimethyl (oxo)-λ^6-sulfanylidene)amino)cyclohexyl)methyl)amrno)-5-nitro-pyridin-3-yl)sulfonyl)-4-(2-((R or S)-3-(2-isopropylphenyl)morpho-lino)-7-azaspiro[3.5]nonan-7-yl) benzamide], the pIC50 was at least 9.00 with DoHH2 cells and 8.70 in the experiment with Toledo cells.
